The values below are quoted from earlier work in patent US20220151997A1, “USE OF EPALRESTAT IN PREPARATION OF PANCREATIC CANCER DRUGS AND METHOD FOR VERIFYING INHIBITION EFFECT OF EPALRESTAT ON SECRETION OF EXOSOMES FROM PANCREATIC CANCER CELLS” (Affiliated Hospital of Nantong University, priority 2019, published 2022).

The data set deals with prostate cancer cells. Conditions: by inhibiting the Ras signaling pathway and hnRNP H1 expression.

On to `CCCC[C@@H](C)/C=C(C)/C=C(\C)C(=O)NC1=C[C@@](O)(/C=C/C=C/C=C/C(=O)NC2=C(O)CCC2=O)[C@@H]2O[C@@H]2C1=O` [Manumycin A], for which the “production and secretion of the exosomes” value is on record as “inhibits”.
